The record followed here is patent publication US10471046B2, “Method for treating, preventing, or reducing the risk of skin infection” (Melinta Subsidiary Corp., priority 2014, dated 2019).

SMILES strings stand for the structures. In brackets after ≈: the same amount, converted by molar mass. Where two headings read alike, the source gives them in different places.

The test system of this assay is S. aureus. In words: Minimum inhibitory concentrations (MICs) for S. aureus of exemplary compounds (Table 2). In kind it is cell-based. Conditions: Staphylococcus aureus, read-out: MICs. Summed up:
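Growth of S. aureus in media with or without compound, by broth microdilution in microtiter trays following NCCLS M7-A5 guidelines. Values are MICs in μg/mL.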

The mark [1] stands for this setting: minimum inhibitory concentrations for S. aureus.

`CC(=O)NC[C@H]1CN(c2ccc(-c3ccc(CNC(=O)/C=C/c4cccn(C)c4=O)cc3)c(F)c2)C(=O)O1` [Compound 4194, N-{4′-[5-(S)-(Acetylamino-methyl)-2-oxo-oxazolidin-3-yl]-2′-fluoro-biphenyl-4-ylmethyl}-3-(1-methyl-2-oxo-1,2-dihydro-pyridin-3-yl)-acrylamide]: the MIC under setting [1] was found to be 2 µg/mL (≈ 3.86 µM).

Take `CC(=O)NC[C@H]1CN(c2ccc(-c3ccc(COCc4ccccn4)nc3)c(F)c2)C(=O)O1` [Compound 4195, N-(3-{3-Fluoro-4-[6-(pyridin-2-ylmethoxymethyl)-pyridin-3-yl]-phenyl}-2-oxo-oxazolidin-5-(S)-ylmethyl)-acetamide]: the MIC under setting [1] was determined as 1 µg/mL (≈ 2.22 µM).

As for `CC(=O)NC[C@H]1CN(c2ccc(-c3ccc(COCc4ccncc4)cc3)c(F)c2)C(=O)O1` [Compound 4196, N-{3-[2-Fluoro-4′-(pyridin-4-ylmethoxymethyl)-biphenyl-4-yl]-2-oxo-oxazolidin-5-(S)-ylmethyl}-acetamide], the MIC under setting [1] is 1 µg/mL (≈ 2.22 µM).

As for `CC(=O)NC[C@H]1CN(c2ccc(-c3ccc(COCc4ccccn4)cn3)c(F)c2)C(=O)O1` [Compound 4197, N-(3-{3-Fluoro-4-[5-(pyridin-2-ylmethoxymethyl)-pyridin-2-yl]-phenyl}-2-oxo-oxazolidin-5-(S)-ylmethyl)-acetamide], under setting [1], the MIC was determined as 4 µg/mL (≈ 8.88 µM).

`CC(=O)NC[C@H]1CN(c2ccc(-c3ccc(COCc4cc[n+]([O-])cc4)cc3)c(F)c2)C(=O)O1` [Compound 4198, N-{3-[2-Fluoro-4′-(1-oxy-pyridin-4-ylmethoxymethyl)-biphenyl-4-yl]-2-oxo-oxazolidin-5-(S)-ylmethyl}-acetamide]: under setting [1], the MIC was determined as 2 µg/mL (≈ 4.3 µM).

With `CC(=O)NC[C@H]1CN(c2ccc(-c3ccc([C@@H](O)CNCc4cocn4)cc3)c(F)c2)C(=O)O1` [Compound 4199, N-[3-(2-Fluoro-4′-{1-(R)-hydroxy-2-[(oxazol-4-ylmethyl)-amino]-ethyl}-biphenyl-4-yl)-2-oxo-oxazolidin-5-(S)-ylmethyl]-acetamide], under setting [1], the MIC stood at 4 µg/mL (≈ 8.54 µM).

As to `CC(=O)NC[C@H]1CN(c2ccc(-c3ccc([C@@H](CO)NCc4cocn4)cc3)c(F)c2)C(=O)O1` [Compound 4200, N-[3-(2-Fluoro-4′-{2-hydroxy-1-(S)-[(oxazol-4-ylmethyl)-amino]-ethyl}-biphenyl-4-yl)-2-oxo-oxazolidin-5-(S)-ylmethyl]-acetamide], under setting [1], the MIC stood at 4 µg/mL (≈ 8.54 µM).

On to `CC(=O)NC[C@H]1CN(c2ccc(-c3ccc([C@@H](O)CNCc4ccncc4)cc3)c(F)c2)C(=O)O1` [Compound 4201, N-[3-(2-Fluoro-4′-{1-(R)-hydroxy-2-[(pyridin-4-ylmethyl)-amino]-ethyl}-biphenyl-4-yl)-2-oxo-oxazolidin-5-(S)-ylmethyl]-acetamide], for which the MIC under setting [1] worked out at 2 µg/mL (≈ 4.18 µM).

On to `CC(=O)NC[C@H]1CN(c2ccc(-c3ccc([C@H](CO)NCc4ccncc4)cc3)c(F)c2)C(=O)O1` [Compound 4202, N-[3-(2-Fluoro-4′-{2-hydroxy-1-(R)-[(pyridin-4-ylmethyl)-amino]-ethyl}-biphenyl-4-yl)-2-oxo-oxazolidin-5-(S)-ylmethyl]-acetamide], for which, under setting [1], the MIC was 4 µg/mL (≈ 8.36 µM).

As for `CC(=O)NC[C@H]1CN(c2ccc(-c3ccc(CNCc4cncnc4)cc3)c(F)c2)C(=O)O1` [Compound 4203, N-[3-(2-Fluoro-4′-{[(pyrimidin-5-ylmethyl)-amino]-methyl}-biphenyl-4-yl)-2-oxo-oxazolidin-5-(S)-ylmethyl]-acetamide], the MIC is 1 µg/mL (≈ 2.22 µM).

For `CC(=O)NC[C@H]1CN(c2ccc(-c3ccc(CN(Cc4csnn4)C(C)=O)cc3)c(F)c2)C(=O)O1` [Compound 4204, N-(3-{4′-[(Acetyl-[1,2,3]thiadiazol-4-ylmethyl-amino)-methyl]-2-fluoro-biphenyl-4-yl}-2-oxo-oxazolidin-5-(S)-ylmethyl)-acetamide], the MIC under setting [1] came to 2 µg/mL (≈ 4.02 µM).

As for `CC(=O)NC[C@H]1CN(c2ccc(-c3ccc(C(=O)NCc4cocn4)cc3)c(F)c2)C(=O)O1` [Compound 4205, 4′-[5-(S)-(Acetylamino-methyl)-2-oxo-oxazolidin-3-yl]-2′-fluoro-biphenyl-4-carboxylic acid (oxazol-4-ylmethyl)-amide], the MIC under setting [1] came out at 1 µg/mL (≈ 2.21 µM).

Consider `CC(=O)NC[C@H]1CN(c2ccc(-c3ccc(CNCc4ncsn4)cc3)c(F)c2)C(=O)O1` [Compound 4206, N-[3-(2-Fluoro-4′-{[([1,2,4]thiadiazol-3-ylmethyl)-amino]-methyl}-biphenyl-4-yl)-2-oxo-oxazolidin-5-(S)-ylmethyl]-acetamide], for which the MIC under setting [1] is 1 µg/mL (≈ 2.2 µM).

Consider `CC(=O)NC[C@H]1CN(c2ccc(-c3ccc(CNC(=O)c4csc(NCc5ccc(Cl)cc5)n4)cc3)c(F)c2)C(=O)O1` [Compound 4207, 2-(4-Chloro-benzylamino)-thiazole-4-carboxylic acid {4′-[5-(S)-(acetylamino-methyl)-2-oxo-oxazolidin-3-yl]-2′-fluoro-biphenyl-4-ylmethyl}-amide], for which the MIC under setting [1] was 2 µg/mL (≈ 3.29 µM).

Regarding `CC(=O)NC[C@H]1CN(c2ccc(-c3ccc(CNCc4cnco4)cc3)c(F)c2)C(=O)O1` [Compound 4208, N-[3-(2-Fluoro-4′-{[(oxazol-5-ylmethyl)-amino]-methyl}-biphenyl-4-yl)-2-oxo-oxazolidin-5-(S)-ylmethyl]-acetamide], the MIC under setting [1] worked out at 1 µg/mL (≈ 2.28 µM).

In the case of `CC(=O)NC[C@H]1CN(c2ccc(-c3ccc(CNCC4OCCO4)cc3)c(F)c2)C(=O)O1` [Compound 4209, N-[3-(4′-{[([1,3]Dioxolan-2-ylmethyl)-amino]-methyl}-2-fluoro-biphenyl-4-yl)-2-oxo-oxazolidin-5-(S)-ylmethyl]-acetamide], under setting [1], the MIC was 0.5 µg/mL (≈ 1.13 µM).

Consider `CC(=O)NC[C@H]1CN(c2ccc(-c3ccc(CNCC4CO4)cc3)c(F)c2)C(=O)O1` (stereo partly drawn) [Compound 4210, N-(3-{2-Fluoro-4′-[(oxiranylmethyl-amino)-methyl]-biphenyl-4-yl}-2-oxo-oxazolidin-5-(S)-ylmethyl)-acetamide], for which the MIC under setting [1] turned out to be 4 µg/mL (≈ 9.67 µM).

Consider `CC(=O)NC[C@H]1CN(c2ccc(-c3ccc(CSCc4ccncc4)cc3)c(F)c2)C(=O)O1` [Compound 4211, N-{3-[2-Fluoro-4′-(pyridin-4-ylmethylsulfanylmethyl)-biphenyl-4-yl]-2-oxo-oxazolidin-5-(S)-ylmethyl}-acetamide], for which the MIC under setting [1] was determined as 0.25 µg/mL (≈ 0.537 µM).

For `CC(=O)NC[C@H]1CN(c2ccc(-c3ccc(C[S+]([O-])Cc4ccncc4)cc3)c(F)c2)C(=O)O1` (stereo partly drawn) [Compound 4212, N-{3-[2-Fluoro-4′-(pyridin-4-ylmethanesulfinylmethyl)-biphenyl-4-yl]-2-oxo-oxazolidin-5-(S)-ylmethyl}-acetamide], the MIC under setting [1] was found to be 0.25 µg/mL (≈ 0.519 µM).

For the molecule `O=C1O[C@@H](CO)CN1c1ccc(-c2ccc(CNCc3ccncc3)cc2)c(F)c1` [Compound 4213, 3-(2-Fluoro-4′-{[(pyridin-4-ylmethyl)-amino]-methyl}-biphenyl-4-yl)-5-(R)-hydroxymethyl-oxazolidin-2-one], the MIC under setting [1] turned out to be 4 µg/mL (≈ 9.82 µM).

As for `CC(=O)NC[C@H]1CN(c2ccc(-c3ccc(CS(=O)(=O)Cc4ccncc4)cc3)c(F)c2)C(=O)O1` [Compound 4214, N-{3-[2-Fluoro-4′-(pyridin-4-ylmethanesulfonylmethyl)-biphenyl-4-yl]-2-oxo-oxazolidin-5-(S)-ylmethyl}-acetamide], the MIC under setting [1] is 1 µg/mL (≈ 2.01 µM).

`CC(=O)NC[C@H]1CN(c2ccc(-c3ccc(CN(C)Cc4cnc5ccccc5c4)cc3)c(F)c2)C(=O)O1` [Compound 4215, N-(3-{2-Fluoro-4′-[(methyl-quinolin-3-ylmethyl-amino)-methyl]-biphenyl-4-yl}-2-oxo-oxazolidin-5-(S)-ylmethyl)-acetamide]: the MIC under setting [1] came to 0.25 µg/mL (≈ 0.488 µM).

Regarding `CC(=O)NC[C@H]1CN(c2ccc(-c3ccc(CSCc4ccccn4)cc3)c(F)c2)C(=O)O1` [Compound 4216, N-{3-[2-Fluoro-4′-(pyridin-2-ylmethylsulfanylmethyl)-biphenyl-4-yl]-2-oxo-oxazolidin-5-(S)-ylmethyl}-acetamide], the MIC under setting [1] amounted to 0.5 µg/mL (≈ 1.07 µM).

Consider `CC(=O)NC[C@H]1CN(c2ccc(-c3ccc(C[S+]([O-])Cc4ccccn4)cc3)c(F)c2)C(=O)O1` (stereo partly drawn) [Compound 4217, N-{3-[2-Fluoro-4′-(pyridin-2-ylmethanesulfinylmethyl)-biphenyl-4-yl]-2-oxo-oxazolidin-5-(S)-ylmethyl}-acetamide], for which, under setting [1], the MIC came to 1 µg/mL (≈ 2.08 µM).

Consider `CC(=O)NC[C@H]1CN(c2ccc(-c3ccc(CNCc4cn(C)c5ccccc45)cc3)c(F)c2)C(=O)O1` [Compound 4218, N-[3-(2-Fluoro-4′-{[(1-methyl-1H-indol-3-ylmethyl)-amino]-methyl}-biphenyl-4-yl)-2-oxo-oxazolidin-5-(S)-ylmethyl]-acetamide], for which the MIC under setting [1] was found to be 2 µg/mL (≈ 4 µM).

As for `CC(=O)NC[C@H]1CN(c2ccc(-c3ccc(CNCC4CCOC4)cc3)c(F)c2)C(=O)O1` (stereo partly drawn) [Compound 4219, N-[3-(2-Fluoro-4′-{[(tetrahydro-furan-3-ylmethyl)-amino]-methyl}-biphenyl-4-yl)-2-oxo-oxazolidin-5-(S)-ylmethyl]-acetamide], under setting [1], the MIC is 8 µg/mL (≈ 18.1 µM).

On to `CC(=O)NC[C@H]1CN(c2ccc(-c3ccc(C(=N)NCc4ccco4)cc3)c(F)c2)C(=O)O1` [Compound 4222, N-{3-[2-Fluoro-4′-(N-furan-2-ylmethyl-carbamimidoyl)-biphenyl-4-yl]-2-oxo-oxazolidin-5-(S)-ylmethyl}-acetamide], for which the MIC under setting [1] worked out at 16 µg/mL (≈ 35.5 µM).

With `CC(=O)NC[C@H]1CN(c2ccc(-c3ccc(C(=O)NCCc4cnc[nH]4)nc3)c(F)c2)C(=O)O1` [Compound 4223, 5-{4-[5-(S)-(Acetylamino-methyl)-2-oxo-oxazolidin-3-yl]-2-fluoro-phenyl}-pyridine-2-carboxylic acid [2-(3H-imidazol-4-yl)-ethyl]-amide], under setting [1], the MIC turned out to be 2 µg/mL (≈ 4.29 µM).

Turning to `CC(=O)NC[C@H]1CN(c2ccc(-c3ccc(C(=O)NCc4ncon4)cc3)c(F)c2)C(=O)O1` [Compound 4224, 4′-[5-(S)-(Acetylamino-methyl)-2-oxo-oxazolidin-3-yl]-2′-fluoro-biphenyl-4-carboxylic acid ([1,2,4]oxadiazol-3-ylmethyl)-amide], the MIC under setting [1] came out at 0.5 µg/mL (≈ 1.1 µM).
